Experimental data published in patent US8501786B2, “Hydroxymethyl pyrrolidines as beta 3 adrenergic receptor agonists” (Merck Sharp & Dohme Corp., priority 2009, dated 2013).
Counter-ions that a name gives are not always drawn. Like-named read-outs stand apart in the source and are kept apart here.

Target: T1, human β3 adrenergic receptor (Homo sapiens, UniProt P13945)
T1 construct: stably transfected with the cloned β-adrenergic receptor (β1, β2 or β3); expressed in transfected cells; host or cells: Chinese hamster ovary (CHO) cells, stably transfected
Experiment: Functional assay: cAMP production (LANCE TR-FRET) in CHO cells stably transfected with cloned β3 adrenergic receptor
Format: cell-based

[1] = Table 3, cAMP production, CHO cells expressing human β3 AR, read-out: Human β3 functional
[2] = Table 2, cAMP production, CHO cells expressing human β3 AR, read-out: Human β3 functional
[3] = Table 6, human β3 functional activity given as ranges, read-out: Human β3 functional
[4] = cAMP production, CHO cells expressing human β3 AR, read-out: human Beta-3 agonist functional activity

T1 sequence (P13945 whole entry): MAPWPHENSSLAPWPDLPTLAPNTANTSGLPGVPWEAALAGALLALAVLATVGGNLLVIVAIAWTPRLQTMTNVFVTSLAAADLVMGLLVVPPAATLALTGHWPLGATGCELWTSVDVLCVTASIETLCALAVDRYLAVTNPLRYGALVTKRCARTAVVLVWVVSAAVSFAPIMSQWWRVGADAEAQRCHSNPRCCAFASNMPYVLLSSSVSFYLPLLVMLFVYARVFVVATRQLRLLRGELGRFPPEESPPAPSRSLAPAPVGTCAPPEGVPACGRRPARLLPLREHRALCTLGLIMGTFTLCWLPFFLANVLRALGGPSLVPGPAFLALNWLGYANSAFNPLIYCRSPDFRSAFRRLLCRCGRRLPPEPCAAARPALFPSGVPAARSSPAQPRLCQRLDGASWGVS

| EC50 [1] [nM] | EC50 [2] [nM] | SMILES | also measured |
| --- | --- | --- | --- |
| 1 to 10 |  | Cc1nc2c(s1)CCC2C(=O)Nc1ccc(CC2CC[C@H]([C@H](O)c3cccnc3)N2)cc1 (single isomer, unassigned) [Example 115] |  |
|  | 11 to 100 | O=C(Nc1ccc(CC2CC[C@H]([C@H](O)c3cccnc3)N2)cc1)c1ccccc1-c1nc2ccccc2s1 (stereo partly shown) [Example 34] |  |
| 1 to 10 |  | O=C(Nc1ccc(CC2CC[C@H]([C@H](O)c3cccnc3)N2)cc1)C1CCc2cccnc21 (single isomer, unassigned) [Example 127] |  |
|  | 1 to 10 | O=C(Cn1cnc2ccccc2c1=O)Nc1ccc(CC2CC[C@H]([C@H](O)c3cccnc3)N2)cc1 (single isomer, unassigned) [Example 64] |  |
|  |  | O=C(Nc1ccc(CC2CC[C@H]([C@H](O)c3cccnc3)N2)cc1Br)C1CCc2sc(I)nc21 (single isomer, unassigned) [Example 244] | EC50 (Table 5, human β3 functional activity given as ranges, read-out: Human β3 functional): 11 to 100 nM |
|  | 101 to 1000 | O=C(O)CCC(=O)Nc1ccc(CC2CC[C@H]([C@H](O)c3cccnc3)N2)cc1 (stereo partly shown) [Example 84] |  |
| 101 to 1000 |  | Cc1nc2c(s1)CCC2C(=O)Nc1ccc(CC2CC[C@H]([C@H](O)c3cccnc3)N2)cc1 (single isomer, unassigned) [Example 118] |  |
| < 1 |  | O=C(Nc1ccc(CC2CC[C@H]([C@H](O)c3cccnc3)N2)cc1)C1CCc2scnc21 (single isomer, unassigned) [Example 190] |  |
|  | 11 to 100 | O=C(Cn1nc(Cl)ccc1=O)Nc1ccc(CC2CC[C@H]([C@H](O)c3cccnc3)N2)cc1 (stereo partly shown) [Example 66] |  |
|  |  | CC(NC(=O)c1cnccn1)C(=O)Nc1ccc(C[C@@H]2CC[C@H]([C@H](O)c3cccnc3)N2)cc1 (stereo partly shown) [Example 253] | EC50 [3]: 11 to 100 nM |
|  | 11 to 100 | CC1=NN(CC(=O)Nc2ccc(CC3CC[C@H]([C@H](O)c4cccnc4)N3)cc2)C(=O)C1C (stereo partly shown) [Example 69] |  |
|  |  | O=S(=O)(Nc1ccc(CC2CC[C@H]([C@H](O)c3cccnc3)N2)cc1)c1ccccc1I (stereo partly shown) [Example 238] | EC50 (Table 4, cAMP production, CHO cells expressing human β3 AR, read-out: Human β3 functional): 101 to 1000 nM |
|  | 11 to 100 | O=C(Nc1ccc(CC2CC[C@H]([C@H](O)c3cccnc3)N2)cc1)c1ccccc1CCc1ccccc1 (stereo partly shown) [Example 32] |  |
|  | 101 to 1000 | O=C(Nc1ccc(CC2CC[C@H]([C@H](O)c3cccnc3)N2)cc1)c1ccccc1N1CCCC1 (stereo partly shown) [Example 37] |  |
|  | 11 to 100 | Nc1ncncc1CC(=O)Nc1ccc(CC2CC[C@H]([C@H](O)c3cccnc3)N2)cc1 (stereo partly shown) [Example 49] |  |
|  | 11 to 100 | O=C(Cn1ccncc1=O)Nc1ccc(CC2CC[C@H]([C@H](O)c3cccnc3)N2)cc1 (stereo partly shown) [Example 63] |  |
| 1 to 10 |  | Cc1nnc(C(C)C(=O)Nc2ccc(CC3CC[C@H]([C@H](O)c4cccnc4)N3)cc2)[nH]1 (single isomer, unassigned) [Example 152] |  |
|  |  | O=C(Nc1ccc(C[C@@H]2CC[C@H]([C@H](O)c3cncc(F)c3)N2)cc1)[C@@H]1CCc2scnc21 [Example 262, (4R)—N-[4-({(2S,5R)-5-[(R)-(5-fluoropyridin-3-yl)(hydroxy)methyl]pyrrolidin-2-yl}methyl)phenyl]-5,6-dihydro-4H-cyclopenta[d][1,3]thiazole-4-carboxamide, trifluoroacetic acid salt] | EC50 [4]: < 10 nM |
|  | 101 to 1000 | CNc1ncncc1CC(=O)Nc1ccc(CC2CC[C@H]([C@H](O)c3cccnc3)N2)cc1 (stereo partly shown) [Example 50] |  |
|  |  | CC(NC(=O)c1ccccc1)C(=O)Nc1ccc(C[C@@H]2CC[C@H]([C@H](O)c3cccnc3)N2)cc1 (stereo partly shown) [Example 260] | EC50 [3]: < 1 nM |
| 11 to 100 |  | CC(C(=O)Nc1ccc(CC2CC[C@H]([C@H](O)c3cccnc3)N2)cc1)c1nnn(C)n1 (single isomer, unassigned) [Example 181] |  |
| 1 to 10 |  | CCCC(C(=O)Nc1ccc(CC2CC[C@H]([C@H](O)c3cccnc3)N2)cc1)c1csc(N)n1 (single isomer, unassigned) [Example 108] |  |

| EC50 [1] [nM] | EC50 [2] [nM] | SMILES | also measured |
| --- | --- | --- | --- |
|  | 1 to 10 | O=C(Cn1ccc(=O)[nH]c1=O)Nc1ccc(CC2CC[C@H]([C@H](O)c3cccnc3)N2)cc1 (stereo partly shown) [Example 61] |  |
| 1 to 10 |  | CC(C(=O)Nc1ccc(CC2CC[C@H]([C@H](O)c3cccnc3)N2)cc1)n1cnnn1 (single isomer, unassigned) [Example 183] |  |
|  |  | C[C@@H](C(=O)Nc1ccc(C[C@@H]2CC[C@H]([C@H](O)c3cccnc3)N2)cc1)c1ccccn1 (single isomer, unassigned) [Example 94, trifluoroacetic acid salt] | EC50 [4]: < 100 nM |
|  | 11 to 100 | O=C(Cn1cc2ccccc2n1)Nc1ccc(CC2CC[C@H]([C@H](O)c3cccnc3)N2)cc1 (stereo partly shown) [Example 6] |  |
| 1000 to 3000 |  | Cc1nc(C(C)C(=O)Nc2ccc(CC3CC[C@H]([C@H](O)c4cccnc4)N3)cc2)c(C)s1 (single isomer, unassigned) [Example 104] |  |
| 1 to 10 |  | COC(=O)c1cn(C(C)C(=O)Nc2ccc(CC3CC[C@H]([C@H](O)c4cccnc4)N3)cc2)nn1 (single isomer, unassigned) [Example 150] |  |
|  | 11 to 100 | O=C(CN1CCOC1=O)Nc1ccc(CC2CC[C@H]([C@H](O)c3cccnc3)N2)cc1 (stereo partly shown) [Example 44] |  |
|  | 11 to 100 | O=C(Cc1nnc(Cc2ccccc2)[nH]1)Nc1ccc(CC2CC[C@H]([C@H](O)c3cccnc3)N2)cc1 (stereo partly shown) [Example 26] |  |
| 11 to 100 |  | Cc1noc2c1CCC2C(=O)Nc1ccc(CC2CC[C@H]([C@H](O)c3cccnc3)N2)cc1 (single isomer, unassigned) [Example 169] |  |
| 1 to 10 |  | COC(=O)c1cnnn1C(C)C(=O)Nc1ccc(CC2CC[C@H]([C@H](O)c3cccnc3)N2)cc1 (single isomer, unassigned) [Example 208] |  |
|  | 11 to 100 | O=C(Cc1csc(=S)[nH]1)Nc1ccc(CC2CC[C@H]([C@H](O)c3cccnc3)N2)cc1 (stereo partly shown) [Example 74] |  |
| 11 to 100 |  | O=C(Nc1ccc(CC2CC[C@H]([C@H](O)c3cccnc3)N2)cc1)C1CCc2sc(C3CC3)nc21 (single isomer, unassigned) [Example 121] |  |
|  | 1 to 10 | Cc1nn(CC(=O)Nc2ccc(CC3CC[C@H]([C@H](O)c4cccnc4)N3)cc2)c(=O)c2ccccc12 (stereo partly shown) [Example 9] |  |
| 1 to 10 |  | CC(C(=O)Nc1ccc(CC2CC[C@H]([C@H](O)c3cccnc3)N2)cc1)c1cnccn1 (single isomer, unassigned) [Example 145] |  |
| 11 to 100 |  | O=C(Nc1ccc(CC2CC[C@H]([C@H](O)c3cccnc3)N2)cc1)C1CCc2sc(Br)nc21 (single isomer, unassigned) [Example 159] |  |
|  |  | C[C@H](NC(=O)c1ccccc1F)C(=O)Nc1ccc(C[C@@H]2CC[C@H]([C@H](O)c3cccnc3)N2)cc1 [Example 245, 2-Fluoro-N-((1S)-2-{[4-({(2S,5R)-5-[(R)-hydroxy(pyridin-3-yl)methyl]pyrrolidin-2-yl}methyl)phenyl]amino}-1-methyl-2-oxoethyl)benzamide, trifluoracetic acid salt] | EC50 [4]: < 1 nM |
| 11 to 100 |  | Cc1nc2c(s1)CCC2C(=O)Nc1ccc(CC2CC[C@H]([C@H](O)c3cccnc3)N2)cc1 (single isomer, unassigned) [Example 117] |  |
|  | 101 to 1000 | O=C(Nc1ccc(CC2CC[C@H]([C@H](O)c3cccnc3)N2)cc1)c1ccccc1C1CCCCC1 (stereo partly shown) [Example 36] |  |
| 11 to 100 |  | CC(C(=O)Nc1ccc(CC2CC[C@H]([C@H](O)c3cccnc3)N2)cc1)c1ccn(C)n1 (single isomer, unassigned) [Example 214] |  |
| 101 to 1000 |  | Cc1nc2c(s1)CCC2C(=O)Nc1ccc(CC2CC[C@H]([C@H](O)c3cccnc3)N2)cc1 (single isomer, unassigned) [Example 116] |  |
|  | 1 to 10 | Cc1sc2ncn(CC(=O)Nc3ccc(CC4CC[C@H]([C@H](O)c5cccnc5)N4)cc3)c(=O)c2c1C (stereo partly shown) [Example 21] |  |
